The results in this text go back to patent US20010023293A1, “2-hydroxyphenyl benzotriazoles as uv-a/b filters” (ROCHE VITAMINS INC., priority 2000, published 2001).

Data set [1] in a line: UV absorption spectrum in CH2Cl2. Format: physicochemical.
The nature of data set [2]: Photostability under irradiation at high dilution with a Heraeus 150 W Hg-lamp. To be noted: irradiation at high dilution (50 ppm).
Data set [3] is described as follows: Miscibility with cosmetic solvents such as Cétiol LC (liposolubility). Particulars: such as Cétiol LC (Cocoyl caprylate caprate).

Consider `CCCCC=CC(C)c1cc(C)cc(-n2nc3ccccc3n2)c1O` (centres unmarked) [8% byproduct, 2-(benzotriazole-2-yl)-4-methyl-6-(3-octen-2-yl)-phenol], for which, in data set [1], the “UV absorption maximum, first (UV-B) band” value stood at 306 nm and the “UV absorption maximum, second (UV-A) band” value is 344 nm.
The like results for `CCCC(CC)c1cc(C(C)(C)CC(C)(C)C)cc(-n2nc3ccccc3n2)c1O` (centres unmarked) [Example 4, 2-(benzotriazole-2-yl)-4-(1,1,3,3-tetramethylbutyl)-6-(3-hexyl)-phenol] were, in that order, 306 nm and 346 nm.
The matching figures for `CCCCCC(CC)c1cc(C)cc(-n2nc3ccccc3n2)c1O` (centres unmarked) [Example 3, 2-(benzotriazole-2-yl)-4-methyl-6-(3-octyl)-phenol]: 306 nm and 346 nm.
Take `C=CC(CCCCC)c1cc(C)cc(-n2nc3ccccc3n2)c1O` (centres unmarked) [Example 1, 2-Benzotriazole-2-yl-4-methyl-6-(1-octen-3-yl)-phenol]: the melting point fell in the range of 37 to 38 °C. In data set [1], the “UV absorption maximum, first (UV-B) band” value is 306 nm and the “UV absorption maximum, second (UV-A) band” value is given as 344 nm. In addition, the Photostability entry in data set [2] is reported as “photostable”. In data set [3], the “Miscibility with cosmetic solvents” value is “easily mixable”.
Regarding `C=CC(CCC)c1cc(C(C)(C)CC(C)(C)C)cc(-n2nc3ccccc3n2)c1O` (centres unmarked) [Example 2, 2-(benzotriazole-2-yl)-4-(1,1,3,3-tetramethylbutyl)-6-(1-hexen-3-yl)-phenol], the melting point is 80 to 81 °C. In addition, in data set [1], the “UV absorption maximum, first (UV-B) band” value was 305 nm and the “UV absorption maximum, second (UV-A) band” value amounted to 343 nm.
